Tests used:
T. cruzi [1] = conditions: infected rats; BZ parasite-induced, PBN oxidative stress-induced (Wen et al. 2006, 2010); cited from earlier work
T. cruzi [2] = experiment: Oxidative modification (carbonylation) of plasma proteins in chagasic rats treated with PBN and/or BZ; type: in vivo, rat; conditions: infected rats, plasma proteins
Excerpt: Certain embodiments include biomarkers identified in a previous study. Parasite persistence and oxidative damage in the heart are known to be of pathological significance during Chagas disease (Zacks et al., (2005) An Acad Bras Cienc, 77, 695-715; Gupta et al., (2009) Interdiscip Perspect Infect Dis, 2009, 190354). […] In the previous study the inventors identified 92 proteins that were differentially expressed or oxidized in chagasic plasma. Functional analysis allocated a majority of these proteins to inflammation/immunity and lipid metabolism categories, and to molecular pathways associated with cardiovascular dysfunction, e.g., myocardial infarction, hypertrophy, and fibrosis, and pulmonary embolism and hypertension. Some proteins in chagasic rats treated with PBN and/or BZ were allocated to curative pathways (immune regulation and cardiac remodeling). The 2D-GE results were validated by Western blotting. […] Increased plasma levels of GSN, MYL2, and VIM were directly correlated with the severity of cardiac disease in human chagasic patients. […] These findings have utility in diagnosing disease severity and designing suitable therapy for management of human chagasic patients. […]

T. cruzi [3] = experiment: 2D-GE plasma proteome profile (differential protein expression) of T. cruzi-infected rats treated with PBN and/or BZ; type: in vivo, rat; conditions: plasma, RCP/RCB/RCPB groups (chronic infection)
Excerpt: Certain embodiments include biomarkers identified in a previous study. Parasite persistence and oxidative damage in the heart are known to be of pathological significance during Chagas disease (Zacks et al., (2005) An Acad Bras Cienc, 77, 695-715; Gupta et al., (2009) Interdiscip Perspect Infect Dis, 2009, 190354). […] In the previous study the inventors identified 92 proteins that were differentially expressed or oxidized in chagasic plasma. Functional analysis allocated a majority of these proteins to inflammation/immunity and lipid metabolism categories, and to molecular pathways associated with cardiovascular dysfunction, e.g., myocardial infarction, hypertrophy, and fibrosis, and pulmonary embolism and hypertension. Some proteins in chagasic rats treated with PBN and/or BZ were allocated to curative pathways (immune regulation and cardiac remodeling). The 2D-GE results were validated by Western blotting. […] Increased plasma levels of GSN, MYL2, and VIM were directly correlated with the severity of cardiac disease in human chagasic patients. […] These findings have utility in diagnosing disease severity and designing suitable therapy for management of human chagasic patients.
Ingenuity Pathway Analysis (IPA) is a highly curated and comprehensive software used for the integration of proteins into networks and pathways with biological meaning (Thomas and Bonchev, (2010). Hum Genomics, 4, 353-360). Network analysis of the plasma proteome profile of chagasic rats identified four major sub-networks linked to host response to T. cruzi infection and disease development (Table V). The maximal numbers of the differentially expressed plasma proteins (19 proteins) in chagasic rats were associated with antigen presentation and inflammatory response category (Table V) and indicators of persistent inflammation, known to be of pathological significance in Chagas disease (Dhiman et al., (2009) Clinical and Vaccine Immunology, 16, 660-666; Tanowitz et al., (2009) Prog Cardiovasc Dis, 51, 524-539; Junqueira et al., (2010) Expert Rev Mol Med, 12, e29). Following functional analysis of the inflammation-associated proteins, 12 proteins (APOA1, APOE, C3, CFB, CFH, FGB, GSN, KRT10, PLG, SCG2, SERPINA1, and SERPINC1) were identified as being involved in immune cell trafficking and cell movement of leukocytes, granulocytes, phagocytes, neutrophils, and dendritic and antigen presenting cells. Some of the differentially expressed proteins in inflammation category were associated with activation (APOE, C3, CFH, GC and PLG), chemotaxis (C3, SCG2, SERPINA1, SERPINC1), and infiltration of leukocytes (APOA1, APOE, C3, PLG, KRT10) and neutrophils (C3, CFB, CFH, PLG). Up regulation of APOE, APOA1, APOH, GC and PLG in chagasic plasma was indicative of activation, binding and accumulation of macrophages in the disease state. Of the 19 differentially expressed inflammation-associated proteins, 11 proteins (APOE, C3, CFB, CFH, GSN, KRT10, SCG2, SERPINA1, SERPINC1, GC, and PLG) were carbonylated in chagasic plasma. […] Other proteins (APOE, C3, KRT3, and SCG2) were exposed to oxidation due to T. cruzi-induced, acute oxidative stress, but were normalized in expression and oxidation during the chronic phase.
Seventeen of the differentially expressed proteins in chagasic plasma, i.e., AFM, C4BPA, CACNA1D, DLGAP2, GC, KNG1, MUG1, MYLPF, MY05A, MY05B, PRPH, PZP, RAI14, and SCG2, were allotted to the lipid metabolism/molecular transport/small molecule biochemistry category (Table V) and functionally linked by IPA network analysis to lipid, fatty acid, and carbohydrate metabolism. A majority of the proteins in this category, i.e., ALB, APOA1, APOA4, APOE, APOH, C3, GC, GNAQ, MY05A, PLG, SCD2, SERPINA1, SERPINC1 and VIM, were linked to the synthesis, metabolism, transport, and modification of lipids and fatty acids, and to uptake and release or efflux of lipids, eicosanoids, and cholesterol. […]

O=C(Cn1ccnc1[N+](=O)[O-])NCc1ccccc1 [BZ]
controlling parasite- and oxidative stress-induced pathology (T. cruzi [1]): beneficial effects
preventing protein carbonylation (T. cruzi [2]): not effective in preventing protein carbonylation
Spot# 34 Average Normalized Density × 100,000 (T. cruzi [3]): 0.37
Spot# 52, 54, 302 Average Normalized Density × 100,000 (T. cruzi [3]): 0.60
Spot# 94 Average Normalized Density × 100,000 (T. cruzi [3]): 0.55
Spot# 181 Average Normalized Density × 100,000 (T. cruzi [3]): 7.53
Spot# 586, 614 Average Normalized Density × 100,000 (T. cruzi [3]): 132.20
Spot# 672 Average Normalized Density × 100,000 (T. cruzi [3]): 23.29
Spot# 715 Average Normalized Density × 100,000 (T. cruzi [3]): 30.96
Spot# 745 Average Normalized Density × 100,000 (T. cruzi [3]): 2.30
